Experimental data as given in US20090318426A1, “USE OF FLUMAZENIL IN THE MANUFACTURE OF A MEDICAMENT FOR THE TREATMENT OF DEPRESSIVE DISORDERS” (priority 2006, published 2009).

How the values were obtained:
[1] = test system: patients presenting a depressive disorder; test: SCL-90-R (Symptom Checklist 90 Revised) scale in patients treated with flumazenil; format: in vivo, human; settings: for SCL-90-R at the end: after third administration of flumazenil 2 mg/day, 0.2 mg every 3 minutes
Method: (§1) Three patients presenting a depressive disorder were subjected to treatment.
(§2) Flumazenil was administered in doses of 0.2 mg every 3 minutes (up to a total of 2 mg/day). […] Before starting the first administration of flumazenil, a test consisting of the administration of a bolus of 0.1 mg of flumazenil was conducted to evaluate the reaction of the subject.

[2] = test system: patients presenting a depressive disorder; test: Clinical observation of mood, attention and sleep after administration of flumazenil; format: in vivo, human; settings: for changes in mood: three patients
Method: as §1, §2

[3] = test system: patients presenting a depressive disorder; settings: in vivo
Method: as §1
During the assessment prior to the admission, a thorough psychopathological and medical evaluation was conducted first thing in the morning (9:00 AM). The medical examination included an electrocardiogram and a complete blood analysis, in which the different cell series (red blood cells, white blood cells and platelets) and the biochemical profile (glucose, creatinine, urea, cholesterol and the fractions thereof, triglycerides, alkaline phosphatase, GOT, GPT, GGT, LDH, total proteins, etc.) were studied.
Flumazenil was administered in doses of 0.2 mg every 3 minutes (up to a total of 2 mg/day). This quantity per dose was established to reduce as much as possible undesirable side effects related to possible interactions with other drugs or psychopathologies. Before starting the first administration of flumazenil, a test consisting of the administration of a bolus of 0.1 mg of flumazenil was conducted to evaluate the reaction of the subject.

secondary symptoms [3]: Secondary symptoms did not occur
Compound: CCOC(=O)c1ncn2c1CN(C)C(=O)c1cc(F)ccc1-2 [Flumazenil, 8-fluoro-5,6-dihydro-5-methyl-6-oxo-4H-imidazol[1,5-α][1,4]benzodiazepine-3-carboxylic acid ethyl ester]
SCL-90-R depression values ([1]; after third administration, versus start): reduction in the depression values
SCL-90-R at the end ([1]; patient P01 (associated cocaine consumption), SCL-90-R at the start 78): 0
SCL-90-R at the end ([1]; patient P02 (associated cocaine consumption), SCL-90-R at the start 48): 30
SCL-90-R at the end ([1]; patient P03 (associated alcohol consumption), SCL-90-R at the start 92): 25
mood of the treated patients ([2]; 2 mg/day divided into doses of 0.2 mg every 3 minutes): substantially improves the mood
attention, concentration and other superior faculties ([2]; after third administration): improvement of attention, concentration and other superior faculties being more evident
existing sleep disorders ([2]; after third administration): completely corrected
sleep (early waking) ([2]; patient P01, first night after first administration): did not occur on this first night
sleep (difficulty in falling asleep) ([2]; patient P03, first night after first administration): fell asleep early in the night
changes in mood ([2]; after first administration, with respect to time of admission): feeling of wellbeing and more calmness
changes in mood ([2]; after second administration): better mood
time until induced improvement reaches a clinical level ([2]; treatment of depressive disorders): less than one week
blood pressure values [3]: remained within the range of normal
cardiovascular values [3]: remained within normal parameters
cardiovascular values (heart rate and blood pressure) [3]: did not undergo significant changes
heart rate values [3]: did not undergo any significant increases
symptoms associated to administration [3]: no symptoms associated to such administration
